Measured values as given in patent US11634451B2, “Method for the site-specific enzymatic labelling of nucleic acids in vitro by incorporation of unnatural nucleotides” (The Scripps Research Institute, priority 2013, dated 2023).
Marks after values point to notes of the source that are not given here.

Key:
OneTaq polymerase = experiment: PCR-based screen and amplification of DNA containing unnatural base pairs, OneTaq (Example 1); format: biochemical
Experimental: (§1) The triphosphates of the 6 group were prepared from the previously reported nucleosides (Kubelka, T., Slavetinska, L., Eigner, V. and Hocek, M. Synthesis of 2,6-disubstituted pyridin-3-yl C-2′-deoxyribonucleosides through chemoselective transformations of bromo-chloropyridine C-nucleosides. Org. Biomol. Chem., 11, 4702-4718) according to Ludwig, J. and Eckstein, F. Rapid and efficient synthesis of nucleoside 5′-0-(1-thiotriphosphates), 5′-triphosphates and 2′,3′-cyclophosphorothioates using 2-chloro-4H-1,3,2-benzodioxaphosphorin-4-one. J. Org. Chem., 54, 631-635. The purity of all other triphosphates was confirmed by MALDI-TOF and UV-VIS. Taq and OneTaq DNA polymerases were purchased from New England Biolabs (Ipswich, Mass.). A mixture of dNTPs was purchased from Fermentas (Glen Burnie, Md.). SYBR Green I Nucleic Acid Gel Stain (10,000×) was purchased from Life Technologies (Carlsbad, Calif.). The synthesis of the DNA templates, D8 (Malyshev, D. A., Dhami, K., Quach, H. T., Lavergne, T., Ordoukhanian, P., Torkamani, A. and Romesberg, F. E. Efficient and sequence-independent replication of DNA containing a third base pair establishes a functional six-letter genetic alphabet. Proc. Natl. Acad. Sci. USA, 109, 12005-12010), used for screening rounds 1-5, and D6 (Malyshev, D. A., Seo, Y. J., Ordoukhanian, P. and Romesberg, F. E. PCR with an expanded genetic alphabet. J. Am. Chem. Soc., 131, 14620-14621), used for all other amplifications, was described previously. Sanger sequencing was carried out as described previously (Malyshev, D. A., Dhami, K., Quach, H. T., Lavergne, T., Ordoukhanian, P., Torkamani, A. and Romesberg, F. E. Efficient and sequence-independent replication of DNA containing a third base pair establishes a functional six-letter genetic alphabet. Proc. Natl. Acad. Sci. USA, 109, 12005-12010). Raw Sanger sequencing traces were used to determine the percent retention of the unnatural base pairs, which was converted to fidelity per doubling, as described (Malyshev, D. A., Dhami, K., Quach, H. T., Lavergne, T., Ordoukhanian, P., Torkamani, A. and Romesberg, F. E. Efficient and sequence-independent replication of DNA containing a third base pair establishes a functional six-letter genetic alphabet. Proc. Natl. Acad. Sci. USA, 109, 12005-12010; Malyshev, D. A., Seo, Y. J., Ordoukhanian, P. and Romesberg, F. E. PCR with an expanded genetic alphabet. J. Am. Chem. Soc., 131, 14620-14621).
(§2) All PCR amplifications were performed in a CFX Connect Real-Time PCR Detection System (Bio-Rad), in a total volume of 25 μL using the following conditions: 1× OneTaq reaction buffer, 0.5× Sybr Green I, MgSO4 adjusted to 4.0 mM, 0.2 mM of each dNTP, 50 μM of each unnatural triphosphate, […] of Primer1 and Primer2 (See Table 2), and 0.02 U/μl of the DNA polymerase. Other conditions specific for each round of screening are described in Table 3. Amplified products were purified using DNA Clean and Concentrator-5 spin columns from Zymo Research (Irvine, Calif.). After purification, the PCR products were sequenced on a 3730 DNA Analyzer (Applied Biosystems) to determine the retention of the unnatural base pair as described below. Fidelity was characterized from unnatural base pair (UBP) retention as determined by sequencing with Primer1 on a 3730 DNA Analyzer (Applied Biosystems).
(§3) Specific PCR assay conditions. PCR with the most promising UBPs was carried out with the conditions as described in Table 3. PCR products were further purified on […] gels, followed by single band excision and subsequent clean up using the Zymo Research Zymoclean Gel DNA Recovery Kit. After elution with 20 μl of water, the DNA concentration was measured using fluorescent dye binding (Quant-iT dsDNA HS Assay kit, Life Technologies), and purified amplicons were sequenced in triplicate with both Primer1 and Primer2 to determine UBP retention and thus amplification fidelity. […]

Taq polymerase = molecular target: T1, Taq polymerase (Thermus aquaticus, UniProt P19821); experiment: PCR-based screen and amplification of DNA containing unnatural base pairs, Taq (Example 1); format: biochemical
T1 construct: purchased New England Biolabs (Ipswich, Mass.)
Experimental: as §1, §2, §3

[1] = OneTaq, 1 min Extension, 52 cycles, D6 template
[2] = Taq, 10 s Extension, 52 cycles, D6 template
[3] = ^a 100 pg D8 template, 16 cycles, Taq polymerase, 68° C. for 60 s
[4] = ^b 10 pg D6 template, 24 cycles, OneTaq polymerase, 68° C. for 10 s

T1 sequence (P19821 whole entry): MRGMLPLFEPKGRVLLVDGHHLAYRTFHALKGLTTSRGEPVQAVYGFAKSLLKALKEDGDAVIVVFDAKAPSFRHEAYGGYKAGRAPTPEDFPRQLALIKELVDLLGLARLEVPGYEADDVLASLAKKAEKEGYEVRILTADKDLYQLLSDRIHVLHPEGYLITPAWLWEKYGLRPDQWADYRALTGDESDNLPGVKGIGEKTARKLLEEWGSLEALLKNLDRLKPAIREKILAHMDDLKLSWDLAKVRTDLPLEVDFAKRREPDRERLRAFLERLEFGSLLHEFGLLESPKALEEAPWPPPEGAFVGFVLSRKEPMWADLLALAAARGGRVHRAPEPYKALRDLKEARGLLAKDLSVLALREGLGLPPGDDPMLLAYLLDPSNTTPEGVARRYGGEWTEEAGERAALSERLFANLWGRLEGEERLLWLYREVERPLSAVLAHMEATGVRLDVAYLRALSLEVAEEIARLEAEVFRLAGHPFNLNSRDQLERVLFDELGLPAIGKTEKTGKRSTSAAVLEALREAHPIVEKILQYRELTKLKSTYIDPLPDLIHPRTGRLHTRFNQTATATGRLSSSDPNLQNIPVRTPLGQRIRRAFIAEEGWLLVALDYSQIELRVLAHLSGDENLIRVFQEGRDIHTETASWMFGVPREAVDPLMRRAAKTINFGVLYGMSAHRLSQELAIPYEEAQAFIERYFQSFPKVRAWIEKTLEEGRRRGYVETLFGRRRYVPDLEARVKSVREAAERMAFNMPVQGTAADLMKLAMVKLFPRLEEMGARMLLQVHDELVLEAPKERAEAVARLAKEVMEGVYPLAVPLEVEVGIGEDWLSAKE

COc1cc2ccccc2cc1[C@H]1C[C@H](O)[C@@H](COP(=O)(O)OP(=O)(O)OP(=O)(O)O)O1.Cc1ccc2c(=S)n([C@H]3C[C@H](O)[C@@H](COP(=O)(O)OP(=O)(O)OP(=O)(O)O)O3)ccc2c1 [5SICS-NaM, reference compound]
Amplification, ×10^12 (OneTaq polymerase; [1]): 8.1 ×10^12 | Fidelity per Doubling, % (OneTaq polymerase; [1]): 99.00 ± 0.02% | Retention, % (OneTaq polymerase; [1]): 77.1 ± 0.7% | Amplification, ×10^12 (Taq polymerase; [2]): 9.3 ×10^12 | Fidelity per Doubling, % (Taq polymerase; [2]): <85^b % | Retention, % (Taq polymerase; [2]): <50^b %

COc1cc(C#N)ccc1[C@H]1C[C@H](O)[C@@H](COP(=O)(O)OP(=O)(O)OP(=O)(O)O)O1.O=P(O)(O)OP(=O)(O)OP(=O)(O)OC[C@H]1O[C@@H](n2cc(F)c3ccsc3c2=S)C[C@@H]1O [FTPT3-CNMO]
Retention, % (Taq polymerase; [3]): 94^a %

C#Cc1cc(OC)c([C@H]2C[C@H](O)[C@@H](COP(=O)(O)OP(=O)(O)OP(=O)(O)O)O2)cc1F.O=P(O)(O)OP(=O)(O)OP(=O)(O)OC[C@H]1O[C@@H](n2cc(F)c3ccsc3c2=S)C[C@@H]1O [FTPT3-FEMO]
Amplification, ×10^12 (OneTaq polymerase; [1]): 6.3 ×10^12 | Fidelity per Doubling, % (OneTaq polymerase; [1]): 99.24 ± 0.04% | Retention, % (OneTaq polymerase; [1]): 72.4 ± 1.4% | Amplification, ×10^12 (Taq polymerase; [2]): 5.7 ×10^12 | Fidelity per Doubling, % (Taq polymerase; [2]): 99.51 ± 0.11% | Retention, % (Taq polymerase; [2]): 81 ± 4%

COc1cc(I)c(F)cc1[C@H]1C[C@H](O)[C@@H](COP(=O)(O)OP(=O)(O)OP(=O)(O)O)O1.O=P(O)(O)OP(=O)(O)OP(=O)(O)OC[C@H]1O[C@@H](n2cc(F)c3ccsc3c2=S)C[C@@H]1O [FTPT3-FIMO]
Amplification, ×10^12 (OneTaq polymerase; [1]): 8.2 ×10^12 | Fidelity per Doubling, % (OneTaq polymerase; [1]): 99.65 ± 0.08% | Retention, % (OneTaq polymerase; [1]): 86 ± 3% | Amplification, ×10^12 (Taq polymerase; [2]): 4.8 ×10^12 | Fidelity per Doubling, % (Taq polymerase; [2]): 99.60 ± 0.09% | Retention, % (Taq polymerase; [2]): 84 ± 3%

COc1cc(I)ccc1[C@H]1C[C@H](O)[C@@H](COP(=O)(O)OP(=O)(O)OP(=O)(O)O)O1.O=P(O)(O)OP(=O)(O)OP(=O)(O)OC[C@H]1O[C@@H](n2cc(F)c3ccsc3c2=S)C[C@@H]1O [FTPT3-IMO]
Amplification, ×10^12 (OneTaq polymerase; [1]): 7.1 ×10^12 | Fidelity per Doubling, % (OneTaq polymerase; [1]): 99.38 ± 0.05% | Retention, % (OneTaq polymerase; [1]): 76.8 ± 1.6% | Amplification, ×10^12 (Taq polymerase; [2]): 5.6 ×10^12 | Fidelity per Doubling, % (Taq polymerase; [2]): 99.54 ± 0.13% | Retention, % (Taq polymerase; [2]): 82 ± 5%

COc1cc2ccccc2cc1[C@H]1C[C@H](O)[C@@H](COP(=O)(O)OP(=O)(O)OP(=O)(O)O)O1.O=P(O)(O)OP(=O)(O)OP(=O)(O)OC[C@H]1O[C@@H](n2cc(F)c3ccsc3c2=S)C[C@@H]1O [FTPT3-NaM]
Amplification, ×10^12 (OneTaq polymerase; [1]): 7.0 ×10^12 | Fidelity per Doubling, % (OneTaq polymerase; [1]): 99.76 ± 0.06% | Retention, % (OneTaq polymerase; [1]): 90 ± 2% | Amplification, ×10^12 (Taq polymerase; [2]): 3.7 ×10^12 | Fidelity per Doubling, % (Taq polymerase; [2]): 99.76 ± 0.15% | Retention, % (Taq polymerase; [2]): 91 ± 6%

COc1cc(N=[N+]=[N-])ccc1[C@H]1C[C@H](O)[C@@H](COP(=O)(O)OP(=O)(O)OP(=O)(O)O)O1.O=P(O)(O)OP(=O)(O)OP(=O)(O)OC[C@H]1O[C@@H](n2cc(F)c3ccsc3c2=S)C[C@@H]1O [FTPT3-ZMO]
Retention, % (Taq polymerase; [3]): 88^a %

C#Cc1cc(OC)c([C@H]2C[C@H](O)[C@@H](COP(=O)(O)OP(=O)(O)OP(=O)(O)O)O2)cc1F.O=P(O)(O)OP(=O)(O)OP(=O)(O)OC[C@H]1O[C@@H](n2ccc3ccccc3c2=S)C[C@@H]1O [SICS-FEMO]
Retention, % (OneTaq polymerase; [4]): 92^b %

COc1cc2ccccc2cc1[C@H]1C[C@H](O)[C@@H](COP(=O)(O)OP(=O)(O)OP(=O)(O)O)O1.O=P(O)(O)OP(=O)(O)OP(=O)(O)OC[C@H]1O[C@@H](n2ccc3ccccc3c2=S)C[C@@H]1O [SICS-NaM]
Retention, % (Taq polymerase; [3]): 99^a %

C#Cc1cc(OC)c([C@H]2C[C@H](O)[C@@H](COP(=O)(O)OP(=O)(O)OP(=O)(O)O)O2)cc1F.O=P(O)(O)OP(=O)(O)OP(=O)(O)OC[C@H]1O[C@@H](n2ccc3ncccc3c2=S)C[C@@H]1O [SNICS-FEMO]
Retention, % (OneTaq polymerase; [4]): 95^b %
